Some test systems named below: KM12 colon; SN12C renal; MOLT-4 leukemia; SF-539 CNS; CAKI-1 renal; SK-OV-3 ovarian; HOP-62 NSCLC; HCC-2998 colon; NCI-H460 lung; NCI-H522 lung.
Test in all cases: NCI-60 cell line screen, 48 h

Values joined by “and” are separate entries in the source; they are usually repeats but may differ in a detail not shown here. Equal entries are not always repeated.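 Assay format: 96-well plates, 48-hour exposure. Abbreviation: GI50, concentration required for 50% inhibition of growth. TGI: total growth inhibition.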 Some results are limits rather than exact numbers.

Take `OC1CC2CCC(C1)N2CCCN1c2ccccc2Sc2ccc(Cl)cc21` (stereo not given): the TGI came out at 4.08 µM in the assay on KM12 colon; 13.7 µM in the assay on SN12C renal; 5.8 µM in the assay with MOLT-4 leukemia; 3.89 µM in the assay on SF-539 CNS; 9.47 µM with CAKI-1 renal; 11.6 µM with SK-OV-3 ovarian. For the same molecule, the TGI was found to be 10.4 µM in the assay on HOP-62 NSCLC, 0.959 µM with HCC-2998 colon, 3.25 µM in the assay with NCI-H460 lung and 4.19 µM in the assay on NCI-H522 lung.
Regarding `COc1ccc2cc(-c3cnc4nonc4n3)ccc2c1`, the GI50 in the assay with KM12 colon is 2.03 µM; with SN12C renal it was 5.28 µM; with MOLT-4 leukemia, 1.92 µM; in the assay with SF-539 CNS, 0.825 µM; in the assay on CAKI-1 renal, 2.83 µM; in the assay with SK-OV-3 ovarian, 10.8 µM. In addition, the GI50 was 5.22 µM with HOP-62 NSCLC, 2.32 µM in the assay on HCC-2998 colon, 11 µM in the assay on NCI-H460 lung and 1.29 µM in the assay on NCI-H522 lung. Besides, the TGI in the assay with KM12 colon was greater than 100 µM; in the assay with SN12C renal it was greater than 100 µM; in the assay with MOLT-4 leukemia, greater than 100 µM; with SF-539 CNS, 4.88 µM; in the assay with CAKI-1 renal, greater than 100 µM; in the assay with SK-OV-3 ovarian, greater than 100 µM. Also, the TGI was 64 µM in the assay on HOP-62 NSCLC, greater than 100 µM in the assay on HCC-2998 colon, greater than 100 µM in the assay with NCI-H460 lung and greater than 100 µM with NCI-H522 lung.
As for `COc1cnc2c(c1)C(=O)c1c-2n(CCCN2CCCC2)c(=O)c2cc([N+](=O)[O-])ccc12`, the GI50 in the assay with KM12 colon was 0.139 µM; in the assay with SN12C renal, 0.036 µM; in the assay on MOLT-4 leukemia, less than 0.01 µM; in the assay on SF-539 CNS, 0.0308 µM; in the assay on CAKI-1 renal, less than 0.01 µM; in the assay on SK-OV-3 ovarian, 0.0336 µM. In addition, the GI50 in the assay with HOP-62 NSCLC is less than 0.01 µM; in the assay on HCC-2998 colon, 0.157 µM; in the assay on NCI-H460 lung, less than 0.01 µM; in the assay on NCI-H522 lung, 0.0607 µM. Besides, the TGI is 1.77 µM with KM12 colon; 15.3 µM in the assay on SN12C renal; 0.0451 µM with MOLT-4 leukemia; 0.353 µM in the assay with SF-539 CNS; 1.46 µM with CAKI-1 renal; 0.843 µM in the assay with SK-OV-3 ovarian. Besides, the TGI is 1.24 µM in the assay on HOP-62 NSCLC, 2.53 µM in the assay with HCC-2998 colon, 0.116 µM in the assay on NCI-H460 lung and 3.8 µM in the assay on NCI-H522 lung.
For the molecule `COc1ccc(Br)cc1NC(=O)Nc1cccc2c1ccn2Cc1ccnc(N)c1`, the GI50 in the assay with KM12 colon was 2.57 µM and 4.27 µM; with SN12C renal, 5.48 µM and 7.26 µM; in the assay with MOLT-4 leukemia it was 3.06 µM and 3.14 µM; with SF-539 CNS, 3.34 µM and 2.38 µM; in the assay on CAKI-1 renal, 4.79 µM and 8.78 µM; in the assay on SK-OV-3 ovarian, 8.38 µM and > 10 µM. Further, the GI50 is 4.86 µM and > 10 µM in the assay with HOP-62 NSCLC; 4.41 µM and 4.33 µM in the assay on HCC-2998 colon; 3.85 µM and 4.2 µM in the assay on NCI-H460 lung; 1.89 µM and 2.45 µM with NCI-H522 lung. The TGI in the assay with KM12 colon is 8.23 µM and > 10 µM; in the assay with SN12C renal, 30.8 µM and > 10 µM; in the assay on MOLT-4 leukemia, 18.9 µM and > 10 µM; with SF-539 CNS, 19.3 µM and > 10 µM; in the assay on CAKI-1 renal, 21.5 µM and > 10 µM; with SK-OV-3 ovarian, 26.3 µM and > 10 µM. Moreover, the TGI in the assay with HOP-62 NSCLC was 11.1 µM and > 10 µM; in the assay with HCC-2998 colon, 10.1 µM and > 10 µM; with NCI-H460 lung, 15.1 µM and > 10 µM; with NCI-H522 lung it was 4.35 µM and > 10 µM.
For the molecule `COc1cc2nc(Nc3cccc(Cl)c3)nc(N)c2cc1OC`, the GI50 was 4.07 µM with KM12 colon; 12 µM with SN12C renal; 2.78 µM with MOLT-4 leukemia; 10.2 µM in the assay with SF-539 CNS; 12.3 µM with CAKI-1 renal; 18.1 µM in the assay with SK-OV-3 ovarian. The GI50 in the assay on HOP-62 NSCLC was 5.81 µM; in the assay with HCC-2998 colon, 1.89 µM; with NCI-H460 lung, 4.09 µM; in the assay with NCI-H522 lung, 8.44 µM. In addition, the TGI in the assay with KM12 colon turned out to be 15.7 µM; in the assay on SN12C renal, 24.3 µM; in the assay with MOLT-4 leukemia, 11.4 µM; with SF-539 CNS, 22.8 µM; in the assay on CAKI-1 renal, 27.9 µM; with SK-OV-3 ovarian it was 32.7 µM. In addition, the TGI in the assay with HOP-62 NSCLC came to 18.3 µM; in the assay on HCC-2998 colon, 3.57 µM; in the assay on NCI-H460 lung, 15.5 µM; with NCI-H522 lung, 26.7 µM.
`CCOC(=O)c1[nH]c2cc(Cl)ccc2c1[C@@H](C(=O)NC(C)(C)C)N(CC)C(=O)CCCCC#Cc1cccc2c1CN(C1CCC(=O)NC1=O)C2=O` (stereo not given in full): the GI50 in the assay on KM12 colon is 0.901 µM; with SN12C renal, 0.283 µM; with MOLT-4 leukemia, less than 0.01 µM; with SF-539 CNS, 1.74 µM; in the assay on CAKI-1 renal, 0.0355 µM; in the assay with SK-OV-3 ovarian, 0.694 µM. The GI50 in the assay with HOP-62 NSCLC was less than 0.01 µM; in the assay with HCC-2998 colon it was 0.225 µM; in the assay on NCI-H460 lung, 3.11 µM; in the assay with NCI-H522 lung it was 1.8 µM. Besides, the TGI in the assay with KM12 colon is greater than 100 µM; in the assay with SN12C renal, greater than 100 µM; in the assay with MOLT-4 leukemia, 0.0152 µM; in the assay on SF-539 CNS, 11.7 µM; in the assay with CAKI-1 renal it was 8.62 µM; with SK-OV-3 ovarian it was 16.9 µM. In addition, the TGI with HOP-62 NSCLC is 6.81 µM; with HCC-2998 colon, 58 µM; in the assay on NCI-H460 lung, greater than 54.3 µM; with NCI-H522 lung, 25.8 µM.
As to `NC(=S)N1N=C2CCCCCC[C@@H]2[C@H]1c1ccccc1`, the TGI with KM12 colon, in the assay with SN12C renal, in the assay with MOLT-4 leukemia, with SF-539 CNS, in the assay on CAKI-1 renal and in the assay on SK-OV-3 ovarian was greater than 100 µM throughout. For the same molecule, the TGI in the assay with HOP-62 NSCLC is greater than 100 µM; with HCC-2998 colon it was greater than 100 µM; in the assay with NCI-H460 lung it was greater than 100 µM; in the assay on NCI-H522 lung, 82.9 µM.
Consider `CCOC(=O)C(=Cc1ccc(C#N)cc1)C(=O)OCC`, for which the GI50 was 2.86 µM in the assay on KM12 colon; 1.81 µM in the assay with SN12C renal; 3.09 µM with MOLT-4 leukemia; 1.91 µM with SF-539 CNS; 2.12 µM in the assay with CAKI-1 renal; 9.86 µM with SK-OV-3 ovarian. Further, the GI50 is 2.73 µM in the assay on HOP-62 NSCLC, 1.81 µM in the assay on HCC-2998 colon, 4.2 µM with NCI-H460 lung and 1.48 µM with NCI-H522 lung. Moreover, the TGI with KM12 colon was determined as 8.8 µM; in the assay on SN12C renal, 4.71 µM; in the assay with MOLT-4 leukemia it was 11.5 µM; with SF-539 CNS it was 4.15 µM; in the assay on CAKI-1 renal, 5.37 µM; with SK-OV-3 ovarian, 21.5 µM. The TGI in the assay with HOP-62 NSCLC is 9.81 µM; in the assay on HCC-2998 colon, 3.43 µM; with NCI-H460 lung it was 16 µM; with NCI-H522 lung, 3.1 µM.

These data come from PubChem BioAssay (NCI).
